In brackets after ≈: the same amount, converted by molar mass.
System: HIV-1 (RF)
Test: HIV RNA assay: microplate based compound evaluation in HIV-1 infected MT-2 cells
Type: cell-based
Conditions: Human immunodeficiency virus 1, MT2, 72 h; HIV-1 (RF) infected MT-2 cells, 3 days culture; value used to standardize the virus inoculum; read-out: IC90 (concentration of compound required to reduce the HIV RNA level by 90%)
Description: DNA Plasmids and in vitro RNA Transcripts:
Plasmid pDAB 72 containing both gag and pol sequences of BH10 (bp 113-1816) cloned into PTZ 19R was prepared according to Erickson-Viitanen et al. AIDS Research and Human Retroviruses 1989, 5, 577. The plasmid was linearized with Bam HI prior to the generation of in vitro RNA transcripts using the Riboprobe Gemini system II kit (Promega) with T7 RNA polymerase. Synthesized RNA was purified by treatment with RNase free DNAse (Promega), phenol-chloroform extraction, and ethanol precipitation. RNA transcripts were dissolved in water, and stored at −70° C. The concentration of RNA was determined from the A260.
Biotinylated capture probes were purified by HPLC after synthesis on an Applied Biosystems (Foster City, Calif.) DNA synthesizer by addition of biotin to the 5′ terminal end of the oligonucleotide, using the biotin-phosphoramidite reagent of Cocuzza, Tet. Lett. 1989, 30, 6287. […]
MT-2 and MT-4 cells were maintained in RPMI 1640 supplemented with 5% fetal calf serum (FCS) for MT-2 cells or 10% FCS for MT-4 cells, 2 mM L-glutamine and 50 μg/mL gentamycin, all from Gibco. […] Infectious titers of HIV-1(RF) stocks were 1-3×10^7 PFU (plaque forming units)/mL as measured by plaque assay on MT-2 cells (see below). […]

Compound: Nc1ccn([C@H]2CC[C@@H](CO)O2)c(=O)n1 [ddC, 2′,3′-dideoxycytidine]
- IC90: 0.2 µg/mL (≈ 0.947 µM)
